Data: PubChem BioAssay AID1845198 (Molecular Pharmacology Branch, DTP, NCI, 2023)

Test system: 425362-245-T-J1 tumor spheroids, viability % test/control
Assay: Anticancer human tumor 425362-245-T-J1 patient-derived melanoma cell line growth inhibition
Conditions: spheroids with HUVEC and MSC; for IC50: curve of first compound; for viability, T/C: stronger effect = lower value
Method in brief: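 Complex spheroids of malignant cells with endothelial cells and mesenchymal stem cells; agents alone or combined, from near clinical Cmax (or 10 microM if unknown) down in half-log steps, 0.25% DMSO final.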

[1] = second compound 0.003 µM, first compound 0.0316 µM
[2] = second compound 0.003 µM, first compound 0.1 µM
[3] = second compound 0.003 µM, first compound 0.316 µM
[4] = second compound 0.003 µM, first compound 1 µM
[5] = second compound 0.003 µM, first compound 3.16 µM
[6] = second compound 0.003 µM, first compound 10 µM
[7] = second compound 0.00949 µM, first compound 0.0316 µM
[8] = second compound 0.00949 µM, first compound 0.1 µM
[9] = second compound 0.00949 µM, first compound 0.316 µM
[10] = second compound 0.00949 µM, first compound 1 µM
[11] = second compound 0.00949 µM, first compound 3.16 µM
[12] = second compound 0.00949 µM, first compound 10 µM
[13] = second compound 0.03 µM, first compound 0.0316 µM
[14] = second compound 0.03 µM, first compound 0.1 µM
[15] = second compound 0.03 µM, first compound 0.316 µM
[16] = second compound 0.03 µM, first compound 1 µM
[17] = second compound 0.03 µM, first compound 3.16 µM
[18] = second compound 0.03 µM, first compound 10 µM
[19] = second compound 0.0949 µM, first compound 0.0316 µM
[20] = second compound 0.0949 µM, first compound 0.1 µM
[21] = second compound 0.0949 µM, first compound 0.316 µM
[22] = second compound 0.0949 µM, first compound 1 µM
[23] = second compound 0.0949 µM, first compound 3.16 µM
[24] = second compound 0.0949 µM, first compound 10 µM
[25] = second compound 0.3 µM, first compound 0.0316 µM
[26] = second compound 0.3 µM, first compound 0.1 µM
[27] = second compound 0.3 µM, first compound 0.316 µM
[28] = second compound 0.3 µM, first compound 1 µM
[29] = second compound 0.3 µM, first compound 3.16 µM
[30] = second compound 0.3 µM, first compound 10 µM
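Further: spheroids exposed to agents for 7 days.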
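Wherever viability, T/C is given: 100% = DMSO vehicle control viability.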

SMILES | IC50 (second compound 0.003 µM) | IC50 (second compound 0.00949 µM) | IC50 (second compound 0.03 µM) | IC50 (second compound 0.0949 µM) | IC50 (second compound 0.3 µM) | viability, T/C [1] | viability, T/C [2] | viability, T/C [3] | viability, T/C [4] | viability, T/C [5] | viability, T/C [6] | viability, T/C [7] | viability, T/C [8] | viability, T/C [9] | viability, T/C [10] | viability, T/C [11] | viability, T/C [12] | viability, T/C [13] | viability, T/C [14] | viability, T/C [15] | also measured
CC(C)n1c(=O)n(C)c2cnc3cc(F)c(-c4ccc(OCCCN5CCCCC5)nc4)cc3c21 + CC[C@@]1(O)C(=O)OCc2c1cc1n(c2=O)Cc2cc3c(CN(C)C)c(O)ccc3nc2-1 | < 31.6 nM | < 31.6 nM | < 31.6 nM | < 31.6 nM | < 31.6 nM | 14.6% | 10.4% | 7.7% | 6.29% | 8.79% | 4.08% | 6.58% | 4.04% | 3.89% | 3.22% | 3.36% | 2.89% | 5.67% | 4.26% | 4.37% | viability, T/C [16]: 4.1%; viability, T/C [17]: 5.65%; viability, T/C [18]: 2.47%; viability, T/C [19]: 7.71%; viability, T/C [20]: 4.71%; viability, T/C [21]: 4.3%; viability, T/C [22]: 3.67%; viability, T/C [23]: 6.89%; viability, T/C [24]: 2.28%; viability, T/C [25]: 2.08%; viability, T/C [26]: 2.15%; viability, T/C [27]: 1.84%; viability, T/C [28]: 1.73%; viability, T/C [29]: 1.54%; viability, T/C [30]: 1.56%
CC1COCCN1c1cc(-c2ccnn2C)c2ccnc(-c3ccn[nH]3)c2n1 (stereo not given) + CC[C@@]1(O)C(=O)OCc2c1cc1n(c2=O)Cc2cc3c(CN(C)C)c(O)ccc3nc2-1 | < 31.6 nM | < 31.6 nM | < 31.6 nM | < 31.6 nM | < 31.6 nM | 37.4% | 15.3% | 6.14% | 6.78% | 6.36% | 6.21% | 14.2% | 6.19% | 4.31% | 5.51% | 5.57% | 5.81% | 4.2% | 2.9% | 3.2% | viability, T/C [16]: 4.33%; viability, T/C [17]: 5.76%; viability, T/C [18]: 6.29%; viability, T/C [19]: 2.84%; viability, T/C [20]: 1.97%; viability, T/C [21]: 2.32%; viability, T/C [22]: 4.06%; viability, T/C [23]: 4.81%; viability, T/C [24]: 4.72%; viability, T/C [25]: 1.36%; viability, T/C [26]: 1.31%; viability, T/C [27]: 1.46%; viability, T/C [28]: 1.77%; viability, T/C [29]: 2.51%; viability, T/C [30]: 3.29%
COc1cc(C)[nH]c(=O)c1CN1CCc2c(Cl)cc(C(OC)C3COC3)c(Cl)c2C1=O (stereo not given) + CC[C@@]1(O)C(=O)OCc2c1cc1n(c2=O)Cc2cc3c(CN(C)C)c(O)ccc3nc2-1 | > 10000 nM | > 10000 nM | < 31.6 nM | < 31.6 nM | < 31.6 nM | 98.7% | 102% | 100% | 94.3% | 78.6% | 79.5% | 91% | 89.6% | 85.6% | 80.6% | 75.8% | 59.5% | 53.7% | 37.2% | 46.5% | viability, T/C [16]: 47.5%; viability, T/C [17]: 29.9%; viability, T/C [18]: 21.6%; viability, T/C [19]: 7.06%; viability, T/C [20]: 7.25%; viability, T/C [21]: 6.93%; viability, T/C [22]: 7.04%; viability, T/C [23]: 5.23%; viability, T/C [24]: 3.44%; viability, T/C [25]: 1.81%; viability, T/C [26]: 2.03%; viability, T/C [27]: 1.77%; viability, T/C [28]: 1.79%; viability, T/C [29]: 1.76%; viability, T/C [30]: 1.76%
COc1ccc([C@@H](O)c2cc(-c3ncnc4cc(N5CCOCC5)ccc34)c(F)cc2Cl)nn1 + CC[C@@]1(O)C(=O)OCc2c1cc1n(c2=O)Cc2cc3c(CN(C)C)c(O)ccc3nc2-1 | 1690 nM | 1110 nM | < 31.6 nM | < 31.6 nM | < 31.6 nM | 103% | 103% | 72.1% | 60.2% | 40.6% | 17% | 89.7% | 78.7% | 72.4% | 47.9% | 35.1% | 14.9% | 45.5% | 45.6% | 37.8% | viability, T/C [16]: 24.5%; viability, T/C [17]: 15.1%; viability, T/C [18]: 11.2%; viability, T/C [19]: 8.69%; viability, T/C [20]: 6.08%; viability, T/C [21]: 5.64%; viability, T/C [22]: 5.51%; viability, T/C [23]: 3.85%; viability, T/C [24]: 4.39%; viability, T/C [25]: 1.88%; viability, T/C [26]: 1.38%; viability, T/C [27]: 1.37%; viability, T/C [28]: 1.12%; viability, T/C [29]: 0.65%; viability, T/C [30]: 0.57%
[2H]c1nc(C)nc([2H])c1-c1cc(NC[C@@H](C)c2cccc3c(C(=O)NC)ccnc23)ncn1 + CC[C@@]1(O)C(=O)OCc2c1cc1n(c2=O)Cc2cc3c(CN(C)C)c(O)ccc3nc2-1 | 3450 nM | 3590 nM | < 31.6 nM | < 31.6 nM | < 31.6 nM | 93.9% | 83.5% | 76.7% | 74.5% | 47.7% | 31.4% | 76.2% | 60.4% | 72.9% | 63.8% | 53% | 25.5% | 39.5% | 32.2% | 36.2% | viability, T/C [16]: 28.3%; viability, T/C [17]: 20.5%; viability, T/C [18]: 9.7%; viability, T/C [19]: 6.85%; viability, T/C [20]: 5.79%; viability, T/C [21]: 4.9%; viability, T/C [22]: 6.11%; viability, T/C [23]: 2.84%; viability, T/C [24]: 3.55%; viability, T/C [25]: 1.6%; viability, T/C [26]: 1.7%; viability, T/C [27]: 1.43%; viability, T/C [28]: 1.44%; viability, T/C [29]: 1.47%; viability, T/C [30]: 1.38%
